In ChEMBL document CHEMBL3885861, “Open TG-GATES”:

Organism: Rattus norvegicus
Assay: Open TG-GATES - Regimen: Daily Repeat
Format: toxicity, organism-based, Sprague-Dawley
Parameters: regimen Daily Repeat, gender Male, age 6 weeks
Details: in vivo, po, 100 mg/kg, route gavage, dose level Low; for APTT / Bas / Eos / Fbg / Hb / Ht / Lym / MCH / MCHC / MCV / Mono / Neu / PT / Plat / RBC / Ret / WBC: tissue Blood; for KIDNEY_L / KIDNEY_R / KIDNEY_TOTAL: tissue Kidney; for LIVER: tissue Liver; for A/G / ALP / ALT / AST / BUN / CRE / Ca / Cl / DBIL / GLC / IP / K / LDH / Na / PL / RALB / TBIL / TC / TG / TP / gamma-GTP: tissue Plasma

With `CNC(=C[N+](=O)[O-])NCCSCc1ccc(CN(C)C)o1` [RANITIDINE] the TERMINAL_BW (72 h, time 3 day) was 232 g, the APTT (72 h, time 3 day) was 19.5 s and the Bas (72 h, time 3 day) was 0%. The Eos (72 h, time 3 day) was 1.4%, the Fbg (72 h, time 3 day) was 221.4 mg/dL and the Hb (72 h, time 3 day) was 14 g/dL. For the same compound, the Ht (72 h, time 3 day) was 40.9%, the Lym (72 h, time 3 day) was 78.6% and the MCH (72 h, time 3 day) was 21.7 pg. For the same compound, the MCHC (72 h, time 3 day) was 34.2%, the MCV (72 h, time 3 day) was 63.3 fL and the Mono (72 h, time 3 day) was 2.6%. The Neu (72 h, time 3 day) was 15.8%, the PT (72 h, time 3 day) was 11.9 s and the Plat (72 h, time 3 day) was 129.9 x10_4/uL. It also gave an RBC (72 h, time 3 day) of 646.4 x10_4/ul, a Ret (72 h, time 3 day) of 5.2% and a WBC (72 h, time 3 day) of 75.1 x10_2/uL. It also gave a KIDNEY_L (72 h, time 3 day) of 1 g, a KIDNEY_R (72 h, time 3 day) of 1 g and a KIDNEY_TOTAL (72 h, time 3 day) of 2 g. For the same compound, the LIVER (72 h, time 3 day) was 11.2 g, the A/G (72 h, time 3 day) was 1.6 and the ALP (72 h, time 3 day) was 970 IU/L. For the same compound, the ALT (72 h, time 3 day) was 34.6 IU/L, the AST (72 h, time 3 day) was 63.6 IU/L and the BUN (72 h, time 3 day) was 15.6 mg/dL. The CRE (72 h, time 3 day) was 0.4 mg/dL, the Ca (72 h, time 3 day) was 10.8 mg/dL and the Cl (72 h, time 3 day) was 103.8 meq/L. It also gave a DBIL (72 h, time 3 day) of 0.086 mg/dL, a GLC (72 h, time 3 day) of 192.8 mg/dL and an IP (72 h, time 3 day) of 7.4 mg/dL. It also gave a K (72 h, time 3 day) of 4.1 meq/L, an LDH (72 h, time 3 day) of 185.2 IU/L and a Na (72 h, time 3 day) of 141.4 meq/L. The PL (72 h, time 3 day) was 152.6 mg/dL, the RALB (72 h, time 3 day) was 3.5 g/dL and the TBIL (72 h, time 3 day) was 0.1 mg/dL. It also gave a TC (72 h, time 3 day) of 82.2 mg/dL, a TG (72 h, time 3 day) of 80 mg/dL and a TP (72 h, time 3 day) of 5.7 g/dL. It also gave a gamma-GTP (72 h, time 3 day) of 1 IU/L, a TERMINAL_BW ([…], time 7 day) of 264.8 g and a TERMINAL_BW ([…], time 14 day) of 314.1 g. It also gave a TERMINAL_BW ([…], time 28 day) of 381.6 g, an APTT ([…], time 7 day) of 19.8 s and a Bas ([…], time 7 day) of 0%. The Eos ([…], time 7 day) was 1%, the Fbg ([…], time 7 day) was 233.2 mg/dL and the Hb ([…], time 7 day) was 14 g/dL. For the same compound, the Ht ([…], time 7 day) was 39.9%, the Lym ([…], time 7 day) was 81.8% and the MCH ([…], time 7 day) was 21.8 pg. For the same compound, the MCHC ([…], time 7 day) was 35.2%, the MCV ([…], time 7 day) was 62.1 fL and the Mono ([…], time 7 day) was 2.6%. It also gave a Neu ([…], time 7 day) of 13.6%, a PT ([…], time 7 day) of 12.3 s and a Plat ([…], time 7 day) of 127.2 x10_4/uL. The RBC ([…], time 7 day) was 643.2 x10_4/ul, the Ret ([…], time 7 day) was 5.2% and the WBC ([…], time 7 day) was 99.9 x10_2/uL. The APTT ([…], time 14 day) was 19.6 s, the Bas ([…], time 14 day) was 0% and the Eos ([…], time 14 day) was 0.8%. It also gave a Fbg ([…], time 14 day) of 243.8 mg/dL, a Hb ([…], time 14 day) of 14.7 g/dL and a Ht ([…], time 14 day) of 40.9%. It also gave a Lym ([…], time 14 day) of 78.6%, an MCH ([…], time 14 day) of 21.7 pg and an MCHC ([…], time 14 day) of 36%. It also gave an MCV ([…], time 14 day) of 60.4 fL, a Mono ([…], time 14 day) of 2% and a Neu ([…], time 14 day) of 16.4%. It also gave a PT ([…], time 14 day) of 11.9 s, a Plat ([…], time 14 day) of 101 x10_4/uL and an RBC ([…], time 14 day) of 678 x10_4/ul. The Ret ([…], time 14 day) was 4%, the WBC ([…], time 14 day) was 109.6 x10_2/uL and the APTT ([…], time 28 day) was 20.9 s. It also gave a Bas ([…], time 28 day) of 0.2%, an Eos ([…], time 28 day) of 1% and a Fbg ([…], time 28 day) of 228.8 mg/dL. It also gave a Hb ([…], time 28 day) of 15.7 g/dL, a Ht ([…], time 28 day) of 45.1% and a Lym ([…], time 28 day) of 82.6%. For the same compound, the MCH ([…], time 28 day) was 19.8 pg, the MCHC ([…], time 28 day) was 34.9% and the MCV ([…], time 28 day) was 56.5 fL. It also gave a Mono ([…], time 28 day) of 1.8%, a Neu ([…], time 28 day) of 12.8% and a PT ([…], time 28 day) of 12.2 s. It also gave a Plat ([…], time 28 day) of 103.7 x10_4/uL, an RBC ([…], time 28 day) of 797.4 x10_4/ul and a Ret ([…], time 28 day) of 1.8%. The WBC ([…], time 28 day) was 119.7 x10_2/uL, the KIDNEY_L ([…], time 7 day) was 1.1 g and the KIDNEY_R ([…], time 7 day) was 1.1 g. For the same compound, the KIDNEY_TOTAL ([…], time 7 day) was 2.2 g, the KIDNEY_L ([…], time 14 day) was 1.2 g and the KIDNEY_R ([…], time 14 day) was 1.2 g. For the same compound, the KIDNEY_TOTAL ([…], time 14 day) was 2.4 g, the KIDNEY_L ([…], time 28 day) was 1.4 g and the KIDNEY_R ([…], time 28 day) was 1.3 g. For the same compound, the KIDNEY_TOTAL ([…], time 28 day) was 2.7 g, the LIVER ([…], time 7 day) was 12.5 g and the LIVER ([…], time 14 day) was 14.7 g. For the same compound, the LIVER ([…], time 28 day) was 15.5 g, the A/G ([…], time 7 day) was 1.5 and the ALP ([…], time 7 day) was 852.4 IU/L. For the same compound, the ALT ([…], time 7 day) was 32.4 IU/L, the AST ([…], time 7 day) was 61.2 IU/L and the BUN ([…], time 7 day) was 17.8 mg/dL. The CRE ([…], time 7 day) was 0.4 mg/dL, the Ca ([…], time 7 day) was 10.8 mg/dL and the Cl ([…], time 7 day) was 103 meq/L. For the same compound, the DBIL ([…], time 7 day) was 0.1 mg/dL, the GLC ([…], time 7 day) was 223.6 mg/dL and the IP ([…], time 7 day) was 7.9 mg/dL. For the same compound, the K ([…], time 7 day) was 3.9 meq/L, the LDH ([…], time 7 day) was 174.4 IU/L and the Na ([…], time 7 day) was 139.6 meq/L. It also gave a PL ([…], time 7 day) of 149.2 mg/dL, an RALB ([…], time 7 day) of 3.4 g/dL and a TBIL ([…], time 7 day) of 0.2 mg/dL. For the same compound, the TC ([…], time 7 day) was 73.2 mg/dL, the TG ([…], time 7 day) was 125.4 mg/dL and the TP ([…], time 7 day) was 5.6 g/dL. It also gave a gamma-GTP ([…], time 7 day) of 1.2 IU/L, an A/G ([…], time 14 day) of 1.4 and an ALP ([…], time 14 day) of 793 IU/L. It also gave an ALT ([…], time 14 day) of 35.6 IU/L, an AST ([…], time 14 day) of 63.2 IU/L and a BUN ([…], time 14 day) of 16.4 mg/dL. It also gave a CRE ([…], time 14 day) of 0.5 mg/dL, a Ca ([…], time 14 day) of 10.7 mg/dL and a Cl ([…], time 14 day) of 103.6 meq/L. For the same compound, the DBIL ([…], time 14 day) was 0.1 mg/dL, the GLC ([…], time 14 day) was 190.4 mg/dL and the IP ([…], time 14 day) was 6.9 mg/dL. For the same compound, the K ([…], time 14 day) was 3.9 meq/L, the LDH ([…], time 14 day) was 180 IU/L and the Na ([…], time 14 day) was 142 meq/L. The PL ([…], time 14 day) was 159.4 mg/dL, the RALB ([…], time 14 day) was 3.5 g/dL and the TBIL ([…], time 14 day) was 0.2 mg/dL. For the same compound, the TC ([…], time 14 day) was 75.6 mg/dL, the TG ([…], time 14 day) was 152 mg/dL and the TP ([…], time 14 day) was 6 g/dL. It also gave a gamma-GTP ([…], time 14 day) of 1.2 IU/L, an A/G ([…], time 28 day) of 1.3 and an ALP ([…], time 28 day) of 621.4 IU/L. The ALT ([…], time 28 day) was 32.8 IU/L, the AST ([…], time 28 day) was 63.4 IU/L and the BUN ([…], time 28 day) was 17.2 mg/dL. It also gave a CRE ([…], time 28 day) of 0.5 mg/dL, a Ca ([…], time 28 day) of 10.3 mg/dL and a Cl ([…], time 28 day) of 103.2 meq/L. The DBIL ([…], time 28 day) was 0.094 mg/dL, the GLC ([…], time 28 day) was 220.2 mg/dL and the IP ([…], time 28 day) was 6.6 mg/dL. For the same compound, the K ([…], time 28 day) was 3.6 meq/L, the LDH ([…], time 28 day) was 164.4 IU/L and the Na ([…], time 28 day) was 141.4 meq/L. The PL ([…], time 28 day) was 138.4 mg/dL, the RALB ([…], time 28 day) was 3.5 g/dL and the TBIL ([…], time 28 day) was 0.2 mg/dL. It also gave a TC ([…], time 28 day) of 65.2 mg/dL, a TG ([…], time 28 day) of 107.2 mg/dL and a TP ([…], time 28 day) of 6.3 g/dL. For the same compound, the gamma-GTP ([…], time 28 day) was 1.2 IU/L.
